Experimental data published in patent US8158810B2 (Gilead Sciences, Inc., priority 2006, dated 2012).

Key:
Wistar-derived male rats = assay: Nicotine self-administration; assay type: in vivo, rat; conditions: increasing doses (7.5, 10, 15 mg/kg i.p.) 30 minutes prior to session
Experimental: Wistar-derived male rats (250-300 g) were housed in groups of two and maintained in a temperature-controlled environment on a 12 hour: 12 hour light cycle (0600 h on-1800 h off), upon arrival in the laboratory. Animals were given free access to food and water during a one-week habituation period to the laboratory. […] Animals were handled daily for several days to desensitize them to handling stress before experimental testing. The sample sizes (n=8) provided reliable estimates of drug effects.
Mecamylamine was dissolved in 0.09% isotonic saline and administered at a volume of 1 ml/kg.
Food training and nicotine self-administration took place in 8 standard Coulbourn operant chambers. Each chamber was housed in a sound-attenuated box. Operant chambers were equipped with two levers, mounted 2 cm above the floor, and a cue light mounted 2 cm above the right lever on the back wall of the chamber. For food training, a food hopper was located 2-cm to the left/right of either lever, in the middle of the back wall. Intravenous infusions were delivered in a volume of 0.1 ml over a 1 second interval via an infusion pump (Razel, Conn.) housed outside of the sound attenuated chamber.
Initially, rats were restricted to 15 grams of food daily (approximately 85% of their free-feeding body weight). […]

Male Sprague-Dawley rats = assay: Cocaine self administration and reinstatement model (cocaine induced relapse); assay type: in vivo, rat; conditions: for Lever presses (Avg ± Std. error): significantly different from Vehicle, p < 0.05
Experimental: Intravenous cocaine (0.35 mg/kg/inj) was used in an operant self administration and reinstatement model in rats. In this model, rats addicted to cocaine repeatedly pressed a lever to obtain an intravenous dose (iv) of cocaine. When cocaine was removed, rats stopped pressing the lever. However, rats resumed lever pressing for cocaine (reinstatement) if subjected to a small intraperitoneal (ip) dose (10 mg/kg) of cocaine that normally has no effect in naïve animals. This is a valid animal model of relapse in cocaine addicted humans, and tests the ability of compounds of Formula I to block cocaine craving and relapse.
Male Sprague-Dawley rats with jugular vein catheterization were used. Rats were presented with a choice of two levers in the test/training chamber. […] The following day the reinforcer was switched to FR1 lever pressing for cocaine (0.35 mg/kg/inj, delivered in 0.27 sec). […] Daily training sessions for each group lasted 2 hours, or until a subject earned 200 drug infusions, whichever came first. The subjects remained in drug self-administration training mode until acquisition criterion was met (average presses on the active lever varied by <10% over 3 consecutive training days). This typically takes 10-14 days.
For extinction and reinstatement experiments, rats were required to display stable responding (variability not higher than 15% in 2 consecutive sessions) on the FR1 schedule of reinforcement. […] When average responding across three consecutive extinction sessions fell to 15% of responding during maintenance, subjects were tested for reinstatement. In cocaine-experienced animals, reinstatement was primed with a non-contingent injection of cocaine (10 mg/kg ip) immediately before the reinstatement session. In order to increase statistical power and therefore decrease animal usage, a second extinction period was initiated 3-4 days after the first, which allowed for additional within-subjects comparisons. Experiments used a between-session-training and testing method in which animals were trained to self administer drug. Their behavior was then extinguished and then reinstatement was primed on different days.
Animals were trained to self administer cocaine (0.35 mg/kg/inj) until they reached stable responding. They were then trained in the same chambers but cocaine was no longer available.

hMAO-A = target: T1, hMAO-A (Homo sapiens, UniProt P21397); assay: MAO-A inhibition assay; assay type: biochemical; conditions: up to 10 μM; No = no inhibition; printed in the IC50 hMAO-A column
T1 construct: purchased Sigma M7316
T1 sequence (P21397 1-527): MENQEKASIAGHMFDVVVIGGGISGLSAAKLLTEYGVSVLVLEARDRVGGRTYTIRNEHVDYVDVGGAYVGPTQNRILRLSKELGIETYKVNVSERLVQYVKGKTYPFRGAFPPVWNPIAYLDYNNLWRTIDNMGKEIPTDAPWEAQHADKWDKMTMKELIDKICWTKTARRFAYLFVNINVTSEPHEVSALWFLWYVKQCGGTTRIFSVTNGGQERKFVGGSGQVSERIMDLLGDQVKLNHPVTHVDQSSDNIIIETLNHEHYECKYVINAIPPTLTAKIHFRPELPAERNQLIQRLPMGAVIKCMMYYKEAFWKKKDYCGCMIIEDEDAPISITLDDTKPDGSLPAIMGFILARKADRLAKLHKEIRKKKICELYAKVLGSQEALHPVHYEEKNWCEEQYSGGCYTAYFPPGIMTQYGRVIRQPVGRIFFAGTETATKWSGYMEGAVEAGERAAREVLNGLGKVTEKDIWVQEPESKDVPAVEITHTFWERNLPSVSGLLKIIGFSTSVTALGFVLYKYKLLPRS
In short: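 Human MAO-A (0.6 U/ml) or MAO-B (2.5 U/ml) in 0.1 M potassium phosphate pH 7.5 with 0.5 mM tyramine, 0.12 mM Amplex Red and HRP; compounds at 0.1 nM-10 μM, 30 min at 37 °C, absorbance at 570 nm. Background set with clorgyline (MAO-A) or deprenyl (MAO-B); IC50 from sigmoidal fits.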

hMAO-B = target: T2, hMAO-B (Homo sapiens, UniProt P27338); assay: MAO-B inhibition assay; assay type: biochemical; conditions: No = no inhibition
T2 construct: purchased Sigma M7441
T2 sequence (P27338 1-520): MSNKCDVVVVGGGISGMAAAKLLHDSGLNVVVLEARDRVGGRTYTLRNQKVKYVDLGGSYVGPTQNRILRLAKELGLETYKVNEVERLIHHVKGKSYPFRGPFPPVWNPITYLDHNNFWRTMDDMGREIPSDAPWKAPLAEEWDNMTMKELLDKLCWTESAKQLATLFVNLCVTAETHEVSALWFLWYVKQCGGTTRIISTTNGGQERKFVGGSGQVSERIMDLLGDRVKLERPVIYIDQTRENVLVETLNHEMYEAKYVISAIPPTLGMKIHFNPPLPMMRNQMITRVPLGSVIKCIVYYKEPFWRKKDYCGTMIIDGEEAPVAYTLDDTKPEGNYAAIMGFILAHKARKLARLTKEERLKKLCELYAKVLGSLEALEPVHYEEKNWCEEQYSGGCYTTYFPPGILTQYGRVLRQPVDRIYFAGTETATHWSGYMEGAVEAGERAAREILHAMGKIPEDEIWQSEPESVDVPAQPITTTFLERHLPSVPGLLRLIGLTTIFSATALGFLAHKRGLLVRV
Experimental: MAO-A (Sigma M7316) and MAO-B (Sigma M7441) inhibition assays were conducted in 96-well micro-plates according to the method described by Zhou et al. [Analytical Biochemistry 253, 169-174, 1997]. […] Reactions were initiated by the addition of a pre-mixed solution of tyramine, horseradish peroxidase and Amplex Red, and were allowed to proceed at 37° C. for 30 min. Enzyme activities were determined by measuring absorbance at 570 nm (SpectralMax Plate reader), absorbance of oxidized Amplex Red generated by this horseradish peroxidase-coupled reaction. Nonspecifically formed products were determined in the presence of 2 and 10 µM clorgyline and deprenyl for MAO-A and MAO-B, respectively. IC50 values were determined by fitting concentration-inhibition data to sigmoidal dose-response curves with two-floating parameters: IC50 and Hill coefficient.

[1] = target: T3, hALDH2 (recombinant human mitochondria ALDH) (Homo sapiens, UniProt P05091); assay: ALDH2 inhibition assay; assay type: biochemical
T3 sequence (P05091 18-517): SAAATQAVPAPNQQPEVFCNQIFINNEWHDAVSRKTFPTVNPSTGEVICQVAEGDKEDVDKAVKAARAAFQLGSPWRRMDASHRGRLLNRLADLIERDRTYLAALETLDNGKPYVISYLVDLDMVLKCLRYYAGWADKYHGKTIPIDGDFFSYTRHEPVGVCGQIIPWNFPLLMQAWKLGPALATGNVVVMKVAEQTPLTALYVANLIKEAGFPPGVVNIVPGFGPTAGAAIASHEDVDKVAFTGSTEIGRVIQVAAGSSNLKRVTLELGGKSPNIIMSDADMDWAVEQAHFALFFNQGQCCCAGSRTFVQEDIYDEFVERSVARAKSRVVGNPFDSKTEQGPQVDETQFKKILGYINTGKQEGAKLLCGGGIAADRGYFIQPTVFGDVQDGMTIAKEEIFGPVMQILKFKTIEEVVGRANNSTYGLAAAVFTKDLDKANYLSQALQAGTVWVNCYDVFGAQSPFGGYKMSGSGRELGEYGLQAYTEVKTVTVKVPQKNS
Experimental: ALDH2 inhibition assays were performed in sodium phosphate buffer (50 mM, pH 7.4) containing 1.2 mM NAD^+ (Sigma N7004), 1 nM hALDH2 (recombinant human mitochondria ALDH), various concentrations of test compounds (from 0.03 nM to […]), and 0.15 mM freshly prepared formaldehyde solution (Ladd Research 20295). Reactions were initiated by the addition of formaldehyde and rates were recorded by monitoring NADH formation in a temperature controlled (25° C.) FluoroMax-2 Fluorimeter with excitation and emission wavelengths set at 340 and 460 nm, respectively. […] Normally, IC50 values were determined by fitting concentration-inhibition data to sigmoidal dose-response curves with two-floating parameters: IC50 and Hill coefficient. When tight binding situation was suspected, apparent Ki values were estimated by fitting dose-response data to Morrison's equation [Methods in Enzymology 63, 437-467, 1979].

hMAO-A inhibition up to 10 μM (hMAO-A)	hMAO-B inhibition at 10 μM (hMAO-B; at 10 μM, printed in the IC50 hMAO-B column)	hALDH2 inhibition at 1 μM ([1]; at 1 μM, printed in the IC50 hALDH2 column)	hMAO-B inhibition up to 10 μM (hMAO-B; up to 10 μM)	IC50 [1]	SMILES	number of bar presses (number of infusions) for nicotine administration (Wistar-derived male rats)	Lever presses (Avg ± Std. error) (Male Sprague-Dawley rats; 7.5 mg/kg prior to cocaine priming dose (10 mg/kg), N = 9)	Lever presses (Avg ± Std. error) (Male Sprague-Dawley rats; 10 mg/kg prior to cocaine priming (10 mg/kg) dose, N = 6)	lever presses responding after priming injection of cocaine (Male Sprague-Dawley rats; 7.5 and 10 mg/kg prior to the priming injection of cocaine (10 mg/kg))	relapse for cocaine (Male Sprague-Dawley rats; ip injections, rats)
–	–	–	–	–	CS(=O)(=O)Nc1ccc(-c2coc3cc(OCc4cccc(C(=O)O)c4)ccc3c2=O)cc1 [Cmpd A, 3-[(3-{4-[(methylsulfonyl)amino]phenyl}-4-oxochromen-7-yloxy)methyl]-benzoic acid]	reduced the number of bar presses	24.94 ± 7.92	19.83 ± 11.30	did not show an increase in their lever presses responding	dose dependently blocked relapse for cocaine
No	No	14%	–	–	O=c1c(-c2cn[nH]c2)coc2cc(OCc3noc(-c4cc(F)cc(C(F)(F)F)c4)n3)ccc12 [PT-75, 7-({5-[3-fluoro-5-(trifluoromethyl)phenyl](1,2,4-oxadiazol-3-yl)}methoxy)-3-(5-hydropyrazol-4-yl)chromen-4-one]	–	–	–	–	–
No	–	–	No	20 nM	CC(C)OC(=O)c1cccc(COc2ccc3c(=O)c(-c4ccc(O)cc4)coc3c2)c1 [PT-35, methylethyl 3-{[3-(4-hydroxyphenyl)-4-oxochromen-7-yloxy]methyl}benzoate]	–	–	–	–	–
